Values of other authors, collected in US20190175610A1 (priority 2017, published 2019).

Details: athletes, during exercise after oral supplementation

C[N+](C)(C)C[C@H](O)CC(=O)[O-] [L-carnitine, γ-trimethylamino-β-hydroxybutyrate]
benefit on fatty acid metabolism: no benefit
